Consider two molecules from BindingDB's records for PubMed 35766919 (Zhejiang University, 2022).

The target in this experiment is Maltase-glucoamylase (Homo sapiens, UniProt O43451). Briefly: Inhibition of alpha-glucosidase (unknown origin) using p-nitrophenyl-alpha-D-glucopyranoside as substrate incubated for 10 mins followed by substrate addition and measured after 15 mins by microplate reader analysis.
Maltase-glucoamylase, sequence (O43451 whole entry): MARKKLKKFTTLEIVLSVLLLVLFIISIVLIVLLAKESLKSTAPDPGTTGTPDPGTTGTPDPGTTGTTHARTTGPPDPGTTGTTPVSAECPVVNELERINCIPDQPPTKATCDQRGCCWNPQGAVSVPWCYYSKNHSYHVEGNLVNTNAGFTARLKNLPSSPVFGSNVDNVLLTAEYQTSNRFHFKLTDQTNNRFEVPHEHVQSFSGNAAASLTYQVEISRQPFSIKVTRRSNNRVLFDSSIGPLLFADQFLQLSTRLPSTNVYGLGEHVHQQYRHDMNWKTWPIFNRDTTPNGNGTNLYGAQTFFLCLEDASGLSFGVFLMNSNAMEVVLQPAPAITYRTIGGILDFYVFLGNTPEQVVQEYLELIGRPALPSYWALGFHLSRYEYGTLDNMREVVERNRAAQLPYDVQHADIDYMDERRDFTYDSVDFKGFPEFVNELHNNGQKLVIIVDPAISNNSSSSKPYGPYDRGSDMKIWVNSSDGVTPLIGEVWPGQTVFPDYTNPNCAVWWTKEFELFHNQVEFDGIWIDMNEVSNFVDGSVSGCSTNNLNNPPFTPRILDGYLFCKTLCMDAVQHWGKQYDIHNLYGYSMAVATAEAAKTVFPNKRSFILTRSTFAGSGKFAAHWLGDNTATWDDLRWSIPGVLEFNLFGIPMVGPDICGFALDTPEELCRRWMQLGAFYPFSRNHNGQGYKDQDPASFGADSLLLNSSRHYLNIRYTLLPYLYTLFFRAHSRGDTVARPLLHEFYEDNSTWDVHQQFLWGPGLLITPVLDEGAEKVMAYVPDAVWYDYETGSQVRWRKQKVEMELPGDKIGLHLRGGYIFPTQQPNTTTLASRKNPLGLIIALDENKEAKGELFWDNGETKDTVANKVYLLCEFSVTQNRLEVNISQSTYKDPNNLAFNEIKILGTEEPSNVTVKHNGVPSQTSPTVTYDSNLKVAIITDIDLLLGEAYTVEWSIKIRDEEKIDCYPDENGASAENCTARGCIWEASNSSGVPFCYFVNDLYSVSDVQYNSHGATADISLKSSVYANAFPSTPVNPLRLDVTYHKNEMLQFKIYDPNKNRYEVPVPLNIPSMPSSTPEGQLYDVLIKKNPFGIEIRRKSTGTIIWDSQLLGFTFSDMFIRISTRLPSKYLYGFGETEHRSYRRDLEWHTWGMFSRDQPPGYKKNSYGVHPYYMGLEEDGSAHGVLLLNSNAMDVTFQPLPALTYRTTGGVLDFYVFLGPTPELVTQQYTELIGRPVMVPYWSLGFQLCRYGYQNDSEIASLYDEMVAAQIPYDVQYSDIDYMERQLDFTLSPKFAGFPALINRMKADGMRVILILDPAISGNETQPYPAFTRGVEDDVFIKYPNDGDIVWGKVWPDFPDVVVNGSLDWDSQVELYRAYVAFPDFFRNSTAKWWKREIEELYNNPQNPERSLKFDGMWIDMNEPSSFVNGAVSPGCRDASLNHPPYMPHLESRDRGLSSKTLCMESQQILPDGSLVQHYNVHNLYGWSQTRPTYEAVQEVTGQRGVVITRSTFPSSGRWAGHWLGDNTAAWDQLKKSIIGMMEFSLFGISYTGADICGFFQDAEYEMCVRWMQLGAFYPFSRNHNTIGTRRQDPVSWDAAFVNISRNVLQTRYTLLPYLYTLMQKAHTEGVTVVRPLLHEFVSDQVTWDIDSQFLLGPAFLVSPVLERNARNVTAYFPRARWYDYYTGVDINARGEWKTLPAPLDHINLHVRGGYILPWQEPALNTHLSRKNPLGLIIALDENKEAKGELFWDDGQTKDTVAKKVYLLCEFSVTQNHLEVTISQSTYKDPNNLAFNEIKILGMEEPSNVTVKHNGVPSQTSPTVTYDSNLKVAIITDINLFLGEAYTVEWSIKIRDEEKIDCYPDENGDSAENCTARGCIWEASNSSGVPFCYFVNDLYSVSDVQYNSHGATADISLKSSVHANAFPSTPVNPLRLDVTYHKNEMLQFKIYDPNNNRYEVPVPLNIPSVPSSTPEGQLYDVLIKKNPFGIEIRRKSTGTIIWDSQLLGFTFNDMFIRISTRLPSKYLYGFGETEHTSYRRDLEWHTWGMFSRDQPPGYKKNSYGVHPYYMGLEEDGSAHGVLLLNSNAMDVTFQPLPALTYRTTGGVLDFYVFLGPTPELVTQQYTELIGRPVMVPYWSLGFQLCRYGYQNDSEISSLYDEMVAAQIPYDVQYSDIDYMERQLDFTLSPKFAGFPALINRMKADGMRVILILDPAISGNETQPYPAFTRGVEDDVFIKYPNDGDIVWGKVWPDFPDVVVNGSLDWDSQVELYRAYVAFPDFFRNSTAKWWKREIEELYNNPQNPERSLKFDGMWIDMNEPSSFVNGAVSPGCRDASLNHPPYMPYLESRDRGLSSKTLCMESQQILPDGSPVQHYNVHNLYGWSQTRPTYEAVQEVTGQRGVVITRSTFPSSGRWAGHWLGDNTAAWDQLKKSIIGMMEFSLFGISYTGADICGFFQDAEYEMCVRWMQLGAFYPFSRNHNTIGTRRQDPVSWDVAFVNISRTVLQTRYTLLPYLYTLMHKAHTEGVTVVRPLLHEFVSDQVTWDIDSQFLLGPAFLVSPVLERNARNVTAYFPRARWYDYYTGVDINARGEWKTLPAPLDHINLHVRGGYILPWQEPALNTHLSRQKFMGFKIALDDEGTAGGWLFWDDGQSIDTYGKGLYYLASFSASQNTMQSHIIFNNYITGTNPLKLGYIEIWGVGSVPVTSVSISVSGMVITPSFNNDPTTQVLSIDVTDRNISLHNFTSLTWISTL

As for `Cc1cc(O)c2c(c1)-c1c(-c3ccc(O)cc3)c(=O)oc3c1c-2c(O)c1cccc(O)c13`, inhibition was half-maximal at 0.89 µM (IC50).
As to `Cc1cc(O)c2c(c1)-c1c(-c3c[nH]c4ccccc34)c(=O)oc3c1c-2c(O)c1cccc(O)c13`, the IC50 was 1.58 µM.

One may read the IC50 as the concentration that inhibits the measured activity by half.
